Source: PubChem BioAssay (NCI)
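Results reflect a 48-hour exposure of cells in 96-well plates to compound at five concentrations. Here, GI50 denotes the concentration required for 50% inhibition of growth. TGI is the concentration that stops growth completely.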

What was measured:
Assay in all cases: DTP human tumour cell line panel, 48 h
[1] = system: RPMI-8226 leukemia
[2] = system: BT-549 breast
[3] = system: SF-268 CNS
[4] = system: LOX IMVI melanoma
[5] = system: MDA-MB-231 breast
[6] = system: KM12 colon
[7] = system: IGROV1 ovarian
[8] = system: SF-539 CNS
[9] = system: SF-295 CNS
[10] = system: CAKI-1 renal
[11] = system: DU-145 prostate
[12] = system: M14 melanoma
[13] = system: SW-620 colon
[14] = system: UACC-257 melanoma
[15] = system: COLO 205 colon
[16] = system: UO-31 renal
[17] = system: A549 NSCLC
[18] = system: NCI-H460 lung
[19] = system: SK-MEL-2 melanoma
[20] = system: OVCAR-3 ovarian
[21] = system: UACC-62 melanoma
[22] = system: NCI-H226 lung
[23] = system: T-47D breast
[24] = system: 786-0 renal
[25] = system: SNB-19 CNS
[26] = system: HCT-116 colon
[27] = system: RXF 393 renal
[28] = system: HOP-62 NSCLC
[29] = system: EKVX NSCLC
[30] = system: TK-10 renal
[31] = system: SNB-75 CNS
[32] = system: MOLT-4 leukemia
[33] = system: SK-MEL-28 melanoma
[34] = system: MCF7 breast
[35] = system: OVCAR-8 ovarian
[36] = system: MDA-MB-435
[37] = system: SK-MEL-5 melanoma
[38] = system: MALME-3M melanoma
[39] = system: SK-OV-3 ovarian
[40] = system: HS 578T breast
[41] = system: CCRF-CEM leukemia
[42] = system: NCI-H522 lung
[43] = system: HT29 colon
[44] = system: OVCAR-4 ovarian
[45] = system: HCT-15 colon
[46] = system: ACHN renal
[47] = system: K-562 leukemia
[48] = system: U251 CNS
[49] = system: PC-3 prostate
[50] = system: HCC-2998 colon
[51] = system: NCI/ADR-RES ovarian
[52] = system: SR leukemia
[53] = system: SN12C renal
[54] = system: A498 renal
[55] = system: OVCAR-5 ovarian
[56] = system: HL-60(TB) leukemia
[57] = system: NCI-H23 lung

Question: Which GI50 [1] does the source give for `O=C(O)CN(CCN(CC(=O)O)CC(=O)O)CC(=O)O` here?
Answer: > 100 µM

Question: And the TGI [1]?
Answer: > 100 µM

Question: And the GI50 [2]?
Answer: > 100 µM

Question: What about the TGI [2] of the same molecule?
Answer: > 100 µM

Question: What about the GI50 [3] of the same molecule?
Answer: > 100 µM

Question: And the TGI [3]?
Answer: > 100 µM

Question: And the GI50 [4]?
Answer: > 100 µM

Question: And the TGI [4]?
Answer: > 100 µM

Question: And the GI50 [5]?
Answer: > 100 µM

Question: And the TGI [5]?
Answer: > 100 µM

Question: And the GI50 [6]?
Answer: > 100 µM

Question: What about the TGI [6] of the same molecule?
Answer: > 100 µM

Question: And the GI50 [7]?
Answer: > 100 µM

Question: What about the TGI [7] of the same molecule?
Answer: > 100 µM

Question: And the GI50 [8]?
Answer: > 100 µM

Question: What about the TGI [8] of the same molecule?
Answer: > 100 µM

Question: And the GI50 [9]?
Answer: > 100 µM

Question: What about the TGI [9] of the same molecule?
Answer: > 100 µM

Question: And the GI50 [10]?
Answer: > 100 µM

Question: What about the TGI [10] of the same molecule?
Answer: > 100 µM

Question: And the GI50 [11]?
Answer: > 100 µM

Question: What about the TGI [11] of the same molecule?
Answer: > 100 µM

Question: What about the GI50 [12] of the same molecule?
Answer: > 100 µM

Question: And the TGI [12]?
Answer: > 100 µM

Question: What about the GI50 [13] of the same molecule?
Answer: > 100 µM

Question: And the TGI [13]?
Answer: > 100 µM

Question: And the GI50 [14]?
Answer: > 100 µM

Question: What about the TGI [14] of the same molecule?
Answer: > 100 µM

Question: And the GI50 [15]?
Answer: > 100 µM

Question: What about the TGI [15] of the same molecule?
Answer: > 100 µM

Question: What about the GI50 [16] of the same molecule?
Answer: > 100 µM

Question: And the TGI [16]?
Answer: > 100 µM

Question: What about the GI50 [17] of the same molecule?
Answer: > 100 µM

Question: What about the TGI [17] of the same molecule?
Answer: > 100 µM

Question: What about the GI50 [18] of the same molecule?
Answer: > 100 µM

Question: What about the TGI [18] of the same molecule?
Answer: > 100 µM

Question: And the GI50 [19]?
Answer: > 100 µM

Question: What about the TGI [19] of the same molecule?
Answer: > 100 µM

Question: And the GI50 [20]?
Answer: > 100 µM

Question: And the TGI [20]?
Answer: > 100 µM

Question: What about the GI50 [21] of the same molecule?
Answer: > 100 µM

Question: And the TGI [21]?
Answer: > 100 µM

Question: What about the GI50 [22] of the same molecule?
Answer: > 100 µM

Question: And the TGI [22]?
Answer: > 100 µM

Question: What about the GI50 [23] of the same molecule?
Answer: > 100 µM

Question: And the TGI [23]?
Answer: > 100 µM

Question: What about the GI50 [24] of the same molecule?
Answer: > 100 µM

Question: What about the TGI [24] of the same molecule?
Answer: > 100 µM

Question: And the GI50 [25]?
Answer: > 100 µM

Question: And the TGI [25]?
Answer: > 100 µM

Question: What about the GI50 [26] of the same molecule?
Answer: > 100 µM

Question: And the TGI [26]?
Answer: > 100 µM

Question: And the GI50 [27]?
Answer: > 100 µM

Question: And the TGI [27]?
Answer: > 100 µM

Question: And the GI50 [28]?
Answer: > 100 µM

Question: And the TGI [28]?
Answer: > 100 µM

Question: And the GI50 [29]?
Answer: > 100 µM

Question: And the TGI [29]?
Answer: > 100 µM

Question: And the GI50 [30]?
Answer: > 100 µM

Question: And the TGI [30]?
Answer: > 100 µM

Question: What about the GI50 [31] of the same molecule?
Answer: > 100 µM

Question: What about the TGI [31] of the same molecule?
Answer: > 100 µM

Question: And the GI50 [32]?
Answer: > 100 µM

Question: And the TGI [32]?
Answer: > 100 µM

Question: What about the GI50 [33] of the same molecule?
Answer: > 100 µM

Question: What about the TGI [33] of the same molecule?
Answer: > 100 µM

Question: What about the GI50 [34] of the same molecule?
Answer: > 100 µM

Question: What about the TGI [34] of the same molecule?
Answer: > 100 µM

Question: What about the GI50 [35] of the same molecule?
Answer: > 100 µM

Question: What about the TGI [35] of the same molecule?
Answer: > 100 µM

Question: What about the GI50 [36] of the same molecule?
Answer: > 100 µM

Question: And the TGI [36]?
Answer: > 100 µM

Question: And the GI50 [37]?
Answer: > 100 µM

Question: And the TGI [37]?
Answer: > 100 µM

Question: And the GI50 [38]?
Answer: > 100 µM

Question: What about the TGI [38] of the same molecule?
Answer: > 100 µM

Question: And the GI50 [39]?
Answer: > 100 µM

Question: What about the TGI [39] of the same molecule?
Answer: > 100 µM

Question: And the GI50 [40]?
Answer: > 100 µM

Question: What about the TGI [40] of the same molecule?
Answer: > 100 µM

Question: What about the GI50 [41] of the same molecule?
Answer: > 100 µM

Question: And the TGI [41]?
Answer: > 100 µM

Question: What about the GI50 [42] of the same molecule?
Answer: > 100 µM

Question: What about the TGI [42] of the same molecule?
Answer: > 100 µM

Question: And the GI50 [43]?
Answer: > 100 µM

Question: What about the TGI [43] of the same molecule?
Answer: > 100 µM

Question: And the GI50 [44]?
Answer: > 100 µM

Question: And the TGI [44]?
Answer: > 100 µM

Question: And the GI50 [45]?
Answer: > 100 µM

Question: What about the TGI [45] of the same molecule?
Answer: > 100 µM

Question: And the GI50 [46]?
Answer: > 100 µM

Question: What about the TGI [46] of the same molecule?
Answer: > 100 µM

Question: And the GI50 [47]?
Answer: > 100 µM

Question: What about the TGI [47] of the same molecule?
Answer: > 100 µM

Question: What about the GI50 [48] of the same molecule?
Answer: > 100 µM

Question: What about the TGI [48] of the same molecule?
Answer: > 100 µM

Question: And the GI50 [49]?
Answer: > 100 µM

Question: What about the TGI [49] of the same molecule?
Answer: > 100 µM

Question: Which TGI [50] does the source give for `S=c1sc2c(s1)SCc1cccc(n1)CSc1sc(=S)sc1SCc1cccc(n1)CS2` here?
Answer: > 100 µM

Question: And the TGI [1]?
Answer: > 100 µM

Question: What about the TGI [51] of the same molecule?
Answer: > 100 µM

Question: What about the TGI [2] of the same molecule?
Answer: > 100 µM

Question: And the TGI [52]?
Answer: > 100 µM

Question: What about the TGI [53] of the same molecule?
Answer: > 100 µM

Question: And the TGI [54]?
Answer: > 100 µM

Question: What about the TGI [3] of the same molecule?
Answer: > 100 µM

Question: What about the TGI [4] of the same molecule?
Answer: > 100 µM

Question: And the TGI [5]?
Answer: > 100 µM

Question: And the TGI [6]?
Answer: > 100 µM

Question: And the TGI [7]?
Answer: > 100 µM

Question: What about the TGI [8] of the same molecule?
Answer: > 100 µM

Question: What about the TGI [55] of the same molecule?
Answer: > 100 µM

Question: What about the TGI [9] of the same molecule?
Answer: > 100 µM

Question: And the TGI [10]?
Answer: > 100 µM

Question: And the TGI [11]?
Answer: > 100 µM

Question: What about the TGI [12] of the same molecule?
Answer: > 100 µM

Question: And the TGI [13]?
Answer: > 100 µM

Question: What about the TGI [14] of the same molecule?
Answer: > 100 µM

Question: What about the TGI [15] of the same molecule?
Answer: > 100 µM

Question: What about the TGI [16] of the same molecule?
Answer: > 100 µM

Question: What about the TGI [17] of the same molecule?
Answer: > 100 µM

Question: And the TGI [18]?
Answer: > 100 µM

Question: What about the TGI [19] of the same molecule?
Answer: > 100 µM

Question: What about the TGI [20] of the same molecule?
Answer: > 100 µM

Question: What about the TGI [21] of the same molecule?
Answer: > 100 µM

Question: And the TGI [22]?
Answer: > 100 µM

Question: What about the TGI [56] of the same molecule?
Answer: > 100 µM

Question: What about the TGI [23] of the same molecule?
Answer: > 100 µM

Question: And the TGI [24]?
Answer: > 100 µM

Question: What about the TGI [25] of the same molecule?
Answer: > 100 µM

Question: And the TGI [26]?
Answer: > 100 µM

Question: What about the TGI [28] of the same molecule?
Answer: > 100 µM

Question: What about the TGI [29] of the same molecule?
Answer: > 100 µM

Question: And the TGI [57]?
Answer: > 100 µM

Question: What about the TGI [30] of the same molecule?
Answer: > 100 µM

Question: And the TGI [31]?
Answer: > 100 µM

Question: And the TGI [32]?
Answer: > 100 µM

Question: And the TGI [33]?
Answer: > 100 µM

Question: And the TGI [35]?
Answer: > 100 µM

Question: And the TGI [36]?
Answer: > 100 µM

Question: And the TGI [37]?
Answer: > 100 µM

Question: What about the TGI [38] of the same molecule?
Answer: > 100 µM

Question: What about the TGI [39] of the same molecule?
Answer: > 100 µM

Question: And the TGI [40]?
Answer: > 100 µM

Question: What about the TGI [41] of the same molecule?
Answer: > 100 µM

Question: What about the TGI [42] of the same molecule?
Answer: > 100 µM

Question: And the TGI [43]?
Answer: > 100 µM

Question: What about the TGI [45] of the same molecule?
Answer: > 100 µM

Question: And the TGI [46]?
Answer: > 100 µM

Question: And the TGI [47]?
Answer: > 100 µM

Question: What about the TGI [48] of the same molecule?
Answer: > 100 µM

Question: And the TGI [49]?
Answer: > 100 µM
